The test system of one assay is E. coli ATCC 25922. As to the kind of experiment: MIC, broth microdilution (CLSI), ATCC reference strain. It counts as cell-based, Escherichia coli. The conditions noted are these: E. coli ATCC 25922. The procedure:
(§1) The minimum inhibitory concentration (MIC) of synthetic peptides was determined using the broth microdilution method in cation-adjusted Mueller-Hinton broth (MHB2 – Sigma-Aldrich, St. Louis, MO, United States), according to the recommendations of the Clinical and Laboratory Standards Institute ([CLSI, 2012]), against four reference strains, namely, P. aeruginosa ATCC 27853, E. coli ATCC 25922, S. aureus ATCC 25923 and Enterococcus faecalis ATCC 29212. MIC values of peptide 3.1-PP4 were also determined against MDR clinical isolates of P. aeruginosa (PA002, PA004, Pa3, Pa4), E. coli (Ec1, Ec2, EC001, EC002, EC003) and K. pneumoniae (KP004, KP007, KP010). The peptides were tested in the concentration range of 1–1024 μg/mL. The minimum bactericidal concentration (MBC) was determined as previously reported ([Bessa et al., 2018]). According to CLSI guidelines for antimicrobial susceptibility testing, MIC values were determined for all peptides against ATCC reference strains of two Gram-positive (S. aureus ATCC 25923 and E. faecalis ATCC 29212), and two Gram-negative (P. aeruginosa ATCC 27853 and E. coli ATCC 25922) bacterial species, and are shown in Table 2.

The subject of the next assay is HFF-1 cells. Format: cell-based, human. As to conditions: 72 h. The procedure:
Immortalized human foreskin fibroblasts (HFF-1) were grown as a monolayer from passage number 8–16. For routine maintenance, HFF-1 cells were cultured in Dulbecco’s Modified Eagle Medium (DMEM, from Cell Lines Service) supplemented with 15% fetal bovine serum (FBS, from CLS) and 1% antibiotic/antimycotic solution (100 units/mL of penicillin, 100 μg/mL of streptomycin and 0.25 μg/mL of amphotericin B, from Sigma-Aldrich, St. Louis, MO, United States) at 37°C in an humidified atmosphere with 5% CO2. Cells were harvested by trypsinization [0.25% (w/v) trypsin-EDTA4Na, Sigma-Aldrich, St. Louis, MO, United States] twice a week.
The cytotoxicity of synthetic peptides to HFF-1 cells was evaluated using the standard MTT assay. Briefly, cells were seeded at a density of 8 × 10^4 cells/well onto 96-well plate and incubated at 37°C in a 5% CO2 atmosphere. Cells were allowed to grow for 48 h, and serially diluted peptide solutions (0.78–100 μM) were added to the wells. Then, cells were incubated for 72 h at 37°C, after which wells were washed once with phosphate buffered saline (PBS, Sigma-Aldrich, St. Louis, MO, United States), followed by addition of a 0.45 mg/mL MTT solution to each well. Crystals were allowed to form for 1.5 h. Reaction was stopped by rejecting the medium and addition of dimethylsulfoxide (DMSO, Sigma-Aldrich, St. Louis, MO, United States). Absorbance was read at 570 nm (Biotek PowerWave XS).
At the end of the cytotoxicity assays, the number of viable cells was never below that of initially plated cells. As such, data are represented as peptide concentrations causing 50% growth inhibition (IC50) on HFF-1 cells, rather than as lethal dosis values. IC50 values thus obtained are also included in Table 2.

For assay [1], the system named is MDR clinical isolates of P. aeruginosa (PA002, PA004, Pa3, Pa4). Format: cell-based, Pseudomonas aeruginosa. The procedure:
as §1, with “2018]).” for “2018]). According to CLSI guidelines for antimicrobial susceptibility testing, MIC values were determined for all peptides against ATCC reference strains of two Gram-positive (S. aureus ATCC 25923 and E. faecalis ATCC 29212), and two Gram-negative (P. aeruginosa ATCC 27853 and E. coli ATCC 25922) bacterial species, and are shown in Table 2.”
In view of the above results, peptide conjugate 3.1-PP4 was selected for further investigation of its activity against MDR isolates of three Gram-negative bacterial species, namely, P. aeruginosa (four isolates), E. coli (five isolates), and K. pneumoniae (four isolates), whose antimicrobial resistance patterns are provided in the Supplementary Table S1. MDR isolates of K. pneumoniae were included in this analysis given (i) the high prevalence of K. pneumoniae in HAI ([Zheng et al., 2017]), (ii) that K. pneumoniae isolates used are carbanepem-resistant strains of an Enterobacteriaceae species, meaning that they are class 1 priority pathogens for the research and development of new antibiotics according to the WHO ([WHO, 2017]), and (iii) K. pneumoniae bacteria are usually better biofilm producers than the other Enterobacteriaceae species used, E. coli ([Reisner et al., 2006]). MIC values obtained are shown in Table 3, and confirm peptide’s 3.1-PP4 potent action against Gram-negative bacteria, including MDR isolates, with a selectivity index (SI), i.e., ratio of IC50 values for mammalian vs. bacterial cells, ranging from ca. 9–69. In fact, for P. aeruginosa and E. coli, MIC against MDR isolates were in the same range, or below, of those previously found for ATCC reference strains (Table 2). For K. pneumoniae, MIC values ranged between 1 and 4 μM, which is remarkable.

Where “and” joins values, the source holds several entries; their conditions need not be identical. Identical values can stand only once. Like-named read-outs stand apart in the source and are kept apart here. Peptide text beside a SMILES is read from it.

For the compound `CC(C)C[C@H](NC(=O)[C@H](Cc1c[nH]c2ccccc12)NC(=O)[C@H](CCCCN)NC(=O)[C@H](CC(C)C)NC(=O)[C@H](CC(C)C)NC(=O)[C@H](CCCCN)NC(=O)[C@@H](N)CCCCN)C(=O)N[C@@H](CC(C)C)C(=O)N[C@@H](CCCCN)C(=O)N[C@@H](CC(C)C)C(=O)N[C@@H](CC(C)C)C(=O)N[C@@H](CCCCN)C(=O)N[C@H](C(=O)N[C@H](C(=O)N[C@@H](CCCCN)C(=O)N[C@@H](CO)C(N)=O)[C@@H](C)O)[C@@H](C)O` [Peptide 3.1-PP4] (H-KKLLKWLLKLLKTTKS-NH2; N-terminus assumed), the MIC in the assay on E. coli ATCC 25922 (broth microdilution in MHB2, CLSI, value in parentheses) is 1.0 µM; against E. coli ATCC 25922 (broth microdilution in cation-adjusted Mueller-Hinton broth (MHB2), CLSI, range tested 1–1024 μg/mL), 2 µg/mL; in assay [1] (MDR P. aeruginosa isolate PA002, MHB2), 4 µg/mL; in assay [1] (MDR P. aeruginosa isolate PA004, MHB2), 2 μg/mL and 1 μM; in assay [1] (MDR P. aeruginosa isolate Pa3, MHB2) it was 2 μg/mL and 1 μM; in assay [1] (MDR P. aeruginosa isolate Pa4, MHB2), 2 μg/mL and 1 μM. For the same compound, the MIC in assay [1] (MDR clinical isolates of (PA002, PA004, Pa3, Pa4)) was 2 µM. For the same compound, the IC50 in the assay on HFF-1 cells was 69 ± 5 µM.

What is called MIC is the lowest concentration found to suppress growth. As usually defined, the IC50 is the point on the concentration scale where inhibition reaches its midpoint. Low readings indicate greater potency in that assay, high ones weaker potency in that assay.

For the origin of these results see article PMC6710338, “Turning a Collagenesis-Inducing Peptide Into a Potent Antibacterial and Antibiofilm Agent Against Multidrug-Resistant Gram-Negative Bacteria” (Frontiers in Microbiology, 2019).
